Data published in patent publication US7629340B2, “N-(6-membered aromatic ring)-amido anti-viral compounds” (SmithKline Beecham Corporation, priority 2005, dated 2009).

Assay: Replicon Assay (luciferase, ET cell line)
Format: cell-based, HCV
Conditions: Hepatitis C virus; % inhibition of replication relative to no compound control, test concentration of 10 μM; ET cells, luciferase read 48-72 hours; read-out: % inhib at 10 uM
Procedure: A cell line, ET (Huh-lucubineo-ET) was used for screening of compounds of the present invention for HCV RNA dependent RNA polymerase. The ET cell line was stably transfected with RNA transcripts harboring a I389luc-ubi-neo/NS3-3′/ET; replicon with firefly luciferase-ubiquitin-neomycin phosphotransferase fusion protein and EMCV-IRES driven NS3-5B polyprotein containing the cell culture adaptive mutations (E1202G; T1280I; K1846T) (Krieger at al, 2001 and unpublished). The ET cells were grown in DMEM, supplemented with 10% fetal calf serum, 2 mM Glutamine, Penicillin (100 IU/mL)/Stretomycin (100 μg/mL), 1× nonessential amino acids, and 250 μg/mL G418 (“Geneticin”). They were all available through Life Technologies (Bethesda, Md.). The cells were plated at 0.5−1.0×10^4 cells/well in the 96 well plates and incubated for 24 hrs before adding nucleoside analogs. […] Luciferase activity were measured 48-72 hours later by adding a lysis buffer and the substrate (Catalog number Glo-lysis buffer E2661 and Bright-Glo luciferase system E2620 Promega, Madison, Wis.). Cells should not be too confluent during the assay. Percent inhibition of replication was plotted relative to no compound control. Under the same condition, cytotoxicity of the compounds was determined using cell proliferation reagent, WST-1 (Roche, Germany). The compounds showing antiviral activities, but no significant cytotoxicities were chosen to determine IC50 and TC50. For these determinations, 10 concentration of each compound were used. Concentrations for test compounds typically span a range of 500 fold. IC50 and TC50 values were calculated by fitting % inhibition at each concentration (I) to the following equation: % inhibition=100%/[1+10^(log IC50−log(I))*b] where b is Hill's coefficient.

In order of falling inhibition at 10 µM:
1. O=C(Nc1cccc(-c2ccc3cc(O)ccc3c2)c1)[C@@H]1CCCN1C(=O)OCc1ccccc1 [Compound 6088, 2-[3-(6-Hydroxy-naphthalen-2-yl)-phenylcarbamoyl]-pyrrolidine-1-carboxylic acid benzyl ester]  99.9%
2. O=C(Nc1cccc(-c2ccc3cc[nH]c3c2)c1)[C@@H]1CCCN1C(=O)OCc1ccccc1 [Compound 6097, 2-[3-(1H-Indol-6-yl)-phenylcarbamoyl]-pyrrolidine-1-carboxylic acid benzyl ester]  99.8%
3. O=C(Nc1ccc(-c2cccc(-c3ccccc3)c2)cc1)[C@@H]1CCCN1C(=O)OCc1ccccc1 [Compound 6011, 2-([1,1′;3′,1″]Terphenyl-4-ylcarbamoyl)-pyrrolidine-1-carboxylic acid benzyl ester]  99.7%
4. Cc1cc2nc(Cc3ccc(NC(=O)[C@@H]4CCCN4C(=O)OCc4ccccc4)cc3)[nH]c2cc1C [Compound 6014, 2-[4-(5,6-Dimethyl-1H-benzoimidazol-2-ylmethyl)-phenylcarbamoyl]-pyrrolidine-1-carboxylic acid benzyl ester]  99.6%
5. O=C(Nc1cccc(-c2cccc3cc[nH]c23)c1)[C@@H]1CCCN1C(=O)OCc1ccccc1 [Compound 6094, 2-[3-(1H-Indol-7-yl)-phenylcarbamoyl]-pyrrolidine-1-carboxylic acid benzyl ester]  98.8%
6. Cc1ccc(S(=O)(=O)c2ccc(Oc3cccc(NC(=O)[C@@H]4CCCN4C(=O)OCc4ccccc4)c3)cc2)cc1 (stereo in doubt) [Compound 6027, 2-{3-[4-(Toluene-4-sulfonyl)-phenoxy]-phenylcarbamoyl}-pyrrolidine-1-carboxylic acid benzyl ester]  98.1%
7. Nc1cccc(-c2cccc(NC(=O)[C@@H]3CCCN3C(=O)OCc3ccccc3)c2)c1 [Compound 6054, 2-(3′-Amino-biphenyl-3-ylcarbamoyl)-pyrrolidine-1-carboxylic acid benzyl ester]  97.7%
8. Cc1nc2cc(-c3cccc(NC(=O)[C@@H]4CCCN4C(=O)OCc4ccccc4)c3)ccc2s1 [Compound 6091, 2-[3-(2-Methyl-benzothiazol-5-yl)-phenylcarbamoyl]-pyrrolidine-1-carboxylic acid benzyl ester]  97.7%
9. O=C(Nc1cccc(-c2cccc(O)c2)c1)[C@@H]1CCCN1C(=O)OCc1ccccc1 [Compound 6092, 2-(3′-Hydroxy-biphenyl-3-ylcarbamoyl)-pyrrolidine-1-carboxylic acid benzyl ester]  95.3%
10. O=C(Nc1cccc(-c2ccc([N+](=O)[O-])cc2)c1)[C@@H]1CCCN1C(=O)OCc1ccccc1 [Compound 6053, 2-(4′-Nitro-biphenyl-3-ylcarbamoyl)-pyrrolidine-1-carboxylic acid benzyl ester]  93.3%
11. O=C(NC1CC1)c1ccc(NC(=O)[C@@H]2CCCN2C(=O)OCc2ccccc2)cc1 [Compound 6305, 2-(4-Cyclopropylcarbamoyl-phenylcarbamoyl)-pyrrolidine-1-carboxylic acid benzyl ester]  88.2%
12. O=C(Nc1ccc(-c2ccc3[nH]ccc3c2)cc1)[C@@H]1CCCN1C(=O)OCc1ccccc1 [Compound 6009, 2-[4-(1H-Indol-5-yl)-phenylcarbamoyl]-pyrrolidine-1-carboxylic acid benzyl ester]  83.3%
13. COc1cccc(-c2cccc(NC(=O)[C@@H]3CCCN3C(=O)OCc3ccccc3)c2)c1 [Compound 6008, 2-(3′-Methoxy-biphenyl-3-ylcarbamoyl)-pyrrolidine-1-carboxylic acid benzyl ester]  79.8%
14. O=C(NC1CC1)c1cccc(-c2cccc(NC(=O)[C@@H]3CCCN3C(=O)OCc3ccccc3)c2)c1 [Compound 6310, 2-(3′-Cyclopropylcarbamoyl-biphenyl-3-ylcarbamoyl)-pyrrolidine-1-carboxylic acid benzyl ester]  78.4%
15. O=C(Nc1ccc(-c2cccs2)cc1)[C@@H]1CCCN1C(=O)OCc1ccccc1 [Compound 6023, 2-(4-Thiophen-2-yl-phenylcarbamoyl)-pyrrolidine-1-carboxylic acid benzyl ester]  75.4%
16. COc1cccc(-c2ccc(NC(=O)[C@@H]3CCCN3C(=O)OCc3ccccc3)cc2)c1OC [Compound 6028, 2-(2′,3′-Dimethoxy-biphenyl-4-ylcarbamoyl)-pyrrolidine-1-carboxylic acid benzyl ester]  75%
17. O=C(Nc1cccc(-c2ccc3ccccc3c2)c1)[C@@H]1CCCN1C(=O)OCc1ccccc1 [Compound 6044, 2-(3-Naphthalen-2-yl-phenylcarbamoyl)-pyrrolidine-1-carboxylic acid benzyl ester]  73.2%
18. Cn1ccc2cc(-c3cccc(NC(=O)[C@@H]4CCCN4C(=O)OCc4ccccc4)c3)ccc21 [Compound 6051, 2-[3-(1-Methyl-1H-indol-5-yl)-phenylcarbamoyl]-pyrrolidine-1-carboxylic acid benzyl ester]  68.8%
19. O=C(Cc1cccc(-c2cccc(NC(=O)[C@@H]3CCCN3C(=O)OCc3ccccc3)c2)c1)NC1CC1 [Compound 6312, 2-(3′-Cyclopropylcarbamoylmethyl-biphenyl-3-ylcarbamoyl)-pyrrolidine-1-carboxylic acid benzyl ester]  68.6%
20. Nc1cc(-c2cccc(NC(=O)[C@@H]3CCCN3C(=O)OCc3ccccc3)c2)cc(C(F)(F)F)c1 [Compound 6095, 2-(3′-Amino-5′-trifluoromethyl-biphenyl-3-ylcarbamoyl)-pyrrolidine-1-carboxylic acid benzyl ester]  61.6%
21. Cc1c(N)cccc1-c1cccc(NC(=O)[C@@H]2CCCN2C(=O)OCc2ccccc2)c1 [Compound 6090, 2-(3′-Amino-2′-methyl-biphenyl-3-ylcarbamoyl)-pyrrolidine-1-carboxylic acid benzyl ester]  59.6%
22. CC(=O)c1ccc(-c2cccc(NC(=O)[C@@H]3CCCN3C(=O)OCc3ccccc3)c2)cc1 [Compound 6052, 2-(4′-Acetyl-biphenyl-3-ylcarbamoyl)-pyrrolidine-1-carboxylic acid benzyl ester]  48.3%
23. O=C(Nc1cccc(S(=O)(=O)c2ccccc2)c1)[C@@H]1CCCN1C(=O)OCc1ccccc1 [Compound 6013, 2-(3-Benzenesulfonyl-phenylcarbamoyl)-pyrrolidine-1-carboxylic acid benzyl ester]  32.5%
24. COc1ccccc1-c1cccc(NC(=O)[C@@H]2CCCN2C(=O)OCc2ccccc2)c1 [Compound 6031, 2-(2′-Methoxybiphenyl-3-yl-carbamoyl)-pyrrolidine-1-carboxylic acid benzyl ester]  28.6%
25. O=C(NC1CC1)c1csc(-c2cccc(NC(=O)[C@@H]3CCCN3C(=O)OCc3ccccc3)c2)n1 [Compound 6302, 2-[3-(4-Cyclopropylcarbamoyl-thiazol-2-yl)-phenylcarbamoyl]-pyrrolidine-1-carboxylic acid benzyl ester]  12.2%
26. O=C(Nc1ccc(Cc2nc3ccccc3[nH]2)cc1)[C@@H]1CCCN1C(=O)OCc1ccccc1 (stereo in doubt) [Compound 6038, 2-[4-(1H-Benzoimidazol-2-ylmethyl)-phenylcarbamoyl]-pyrrolidine-1-carboxylic acid benzyl ester]  9.34%
27. COc1ccc(-c2cccc(NC(=O)[C@@H]3CCCN3C(=O)OCc3ccccc3)c2)cc1 [Compound 6037, 2-(4′-Methoxybiphenyl-3-yl-carbamoyl)-pyrrolidine-1-carboxylic acid benzyl ester]  8.6%
28. COc1cccc(OC)c1-c1cccc(NC(=O)[C@@H]2CCCN2C(=O)OCc2ccccc2)c1 (stereo in doubt) [Compound 6033, 2-(2′,6′-Dimethoxybiphenyl-3-yl-carbamoyl)-pyrrolidine-1-carboxylic acid benzyl ester]  8.26%
29. O=C1Nc2ccc(-c3cccc(NC(=O)[C@@H]4CCCN4C(=O)OCc4ccccc4)c3)cc2C1=O [Compound 6084, 2-[3-(2,3-Dioxo-2,3-dihydro-1H-indol-5-yl)-phenylcarbamoyl]-pyrrolidine-1-carboxylic acid benzyl ester]  3.35%
30. O=C(Nc1ccc(NS(=O)(=O)c2ccccc2)cc1)[C@@H]1CCCN1C(=O)OCc1ccccc1 [Compound 6002, 2-(4-Benzenesulfonylamino-phenylcarbamoyl)-pyrrolidine-1-carboxylic acid benzyl ester]  2.69%
31. O=C(Nc1c(Cl)cccc1Cl)c1ccc(NC(=O)[C@@H]2CCCN2C(=O)OCc2ccccc2)cc1 [Compound 6004, 2-[4-(2,6-Dichloro-phenylcarbamoyl)-phenylcarbamoyl]-pyrrolidine-1-carboxylic acid benzyl ester]  2.08%
32. O=C(Nc1cccc(Br)c1)[C@@H]1CCCN1C(=O)OCc1ccccc1 [Compound 6047, 2-(3-Bromo-phenylcarbamoyl)-pyrrolidine-1-carboxylic acid benzyl ester]  1.38%
